The values below come from US20160176867A1, “MODIFIED BET-PROTEIN-INHIBITING DIHYDROQUINOXALINONES AND DIHYDROPYRIDOPYRAZINONES” (BAYER PHARMA AKTIENGESELLSCHAFT, priority 2013, published 2016).

One assay deals with CHL-1 cells. The assay is described as follows: Cell proliferation assay (alamarBlue), CHL-1. The format is cell-based. Particulars: Homo sapiens; CHL-1 (melanoma, BRAF wild-type), 96 hours. How it is done: In accordance with the invention, the ability of the substances to inhibit cell proliferation was determined. Cell viability was determined by means of the alamarBlue® reagent (Invitrogen) in a Victor X3 Multilabel Reader (Perkin Elmer). The excitation wavelength was 530 nm and the emission wavelength […].
The CHL-1 cells (ATCC, CRL-9446) were sown at a concentration of 1000 cells/well in 100 μl of growth medium (DMEM with glutamine, 10% FCS) on 96-well microtitre plates.
After overnight incubation at 37° C., the fluorescence values were determined (CI values). Then the plates were treated with various substance dilutions (1E-5 M, 3E-6 M, 1E-6 M, 3E-7 M, 1E-7 M, 3E-8 M, 1E-8 M) and incubated at 37° C. over 96 hours (MOLM-13, B16F10, CHL-1 cells) or 120 hours (MOLP-8 cells). Subsequently, the fluorescence values were determined (CO values). For the data analysis, the CI values were subtracted from the CO values and the results were compared between cells which had been treated with various dilutions of the substance or only with buffer solution. The IC50 values (substance concentration needed for 50% inhibition of cell proliferation) were calculated therefrom.

The test system of another assay is MOLP-8 cells. The assay is described as follows: Cell proliferation assay (alamarBlue), MOLP-8. Format: cell-based. Particulars: Homo sapiens; MOLP-8 (multiple myeloma), 120 hours. The procedure, abridged: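 MOLP-8 cells plated at 4000 cells/well in RPMI1640 with 20% FCS, read after overnight culture, then treated with dilutions from 1E-5 to 1E-8 M for 120 hours at 37° C. Viability by alamarBlue fluorescence (ex 530/em 590 nm); initial reads subtracted, compared with buffer-treated cells, and IC50 calculated for 50% proliferation inhibition.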
Background: Alamar Blue is a resazurin reagent that responds to reducing activity.

The target of assay [1] is T1, BRD4 bromo domain 1 [BRD4(1)] (Homo sapiens, UniProt O60885).
T1 construct: N-terminally His6-tagged BRD4(1) (amino acids 67-152); made in house; host or cells: E. coli
The assay is described as follows: BRD4/acetylated peptide H4 binding assay (TR-FRET), BRD4 bromo domain 1. The settings on record: inhibition of BRD4(1)/Ac-H4 peptide interaction. A digest of the protocol: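 TR-FRET (665/620 nm ratio) measuring displacement of biotinylated tetra-acetylated H4 peptide from His6-BRD4(1) (aa 67-152, E. coli; typically 10 nM) at pH 7.5. Compound (11 concentrations, 0.1 nM–20 μM, duplicates) was preincubated 10 min at 22°C, then 1 h at 22°C and ≥3 h at 4°C; IC50 from 4-parameter fit normalized to DMSO and no-BRD4 controls.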
Background: Time-resolved FRET reads energy transfer from a long-lived donor to a nearby acceptor.

By IC50 is commonly meant the midpoint of a concentration-inhibition curve. A higher IC50 goes with lower potency. As to `C[C@@H]1C(=O)N(C)c2ccc(Nc3cccc(S(=O)(=O)NC4CCN(C)CC4)c3)nc2N1C1CCN(C(=O)OC(C)(C)C)CC1` [Example 57, tert-butyl 4-[(3R)-1,3-dimethyl-6-({3-[(1-methylpiperidin-4-yl)sulphamoyl]phenyl}-amino)-2-oxo-2,3-dihydro-pyrido[2,3-b]pyrazin-4(1H)-yl]piperidine-1-carboxylate], the IC50 came out at 0.175 µM in the assay on CHL-1 cells, 0.151 µM in the assay on MOLP-8 cells and 0.114 µM in assay [1].
For `C[C@@H]1C(=O)N(C)c2ccc(Nc3cccc(S(N)(=O)=O)c3)nc2N1C1CCOCC1` [Example 58, 3-{[(3R)-1,3-dimethyl-2-oxo-4-(tetrahydro-2H-pyran-4-yl)-1,2,3,4-tetrahydropyrido[2,3-b]pyrazin-6-yl]amino}-benzenesulphonamide], the IC50 with CHL-1 cells was 0.299 µM; in the assay on MOLP-8 cells, 0.268 µM; in assay [1], 0.139 µM.
For `C[C@@H]1C(=O)N(C)c2ccc(Nc3cccc(S(=O)(=O)NCCN(C)C)c3)nc2N1C1CCN(C(=O)OC(C)(C)C)CC1` [Example 59, tert-butyl 4-[(3R)-6-[(3-{[2-(dimethylamino)ethyl]-sulphamoyl}phenyl)amino]-1,3-dimethyl-2-oxo-2,3-dihydropyrido[2,3-b]pyrazin-4(1H)-yl]piperidine-1-carboxylate], in that order: 0.204 µM, 0.297 µM and 0.156 µM.
For `C[C@@H]1C(=O)N(C)c2ccc(Nc3cccc(C(=O)N[C@H]4CC[C@H](N5CCN(CC6CC6)CC5)CC4)c3)nc2N1Cc1ccccc1` [Example 72, 3-{[(3R)-4-benzyl-1,3-dimethyl-2-oxo-1,2,3,4-tetrahydropyrido[2,3-b]pyrazin-6-yl]amino}-N-{trans-4-[4-(cyclo-propylmethyl)piperazin-1-yl]cyclohexyl}benzamide] the same measures were 0.106 µM, 0.122 µM and 0.062 µM.
For `C[C@@H]1C(=O)N(C)c2ccc(Nc3cccc(C(=O)NC4CCN(C)CC4)c3)nc2N1Cc1ccccc1` [Example 73, 3-{[(3R)-4-benzyl-1,3-dimethyl-2-oxo-1,2,3,4-tetrahydropyrido[2,3-b]pyrazin-6-yl]amino}-N-(1-methylpiperidin-4-yl)benzamide], in that order: 0.08 µM, 0.063 µM and 0.077 µM.
As for `C[C@@H]1C(=O)N(C)c2ccc(Nc3cccc(C(=O)NCCN4CCN(C)CC4)c3)nc2N1Cc1ccccc1` [Example 74, 3-{[(3R)-4-benzyl-1,3-dimethyl-2-oxo-1,2,3,4-tetrahydropyrido[2,3-b]pyrazin-6-yl]amino}-N-[2-(4-methylpiperazin-1-yl)ethyl]benzamide], the IC50 worked out at 0.083 µM in the assay with CHL-1 cells, 0.082 µM in the assay with MOLP-8 cells and 0.087 µM in assay [1].
With `C[C@@H]1C(=O)N(C)c2ccc(Nc3cccc(C(=O)N4CCN(C)CC4)c3)nc2N1Cc1ccccc1` [Example 75], the IC50 was 0.125 µM with CHL-1 cells, 0.133 µM with MOLP-8 cells and 0.118 µM in assay [1].
For `C[C@@H]1C(=O)N(C)c2ccc(Nc3cccc(C(=O)N[C@H]4CC[C@H](N5CCN(CC6CC6)CC5)CC4)c3)nc2N1c1ccc(F)cc1` [Example 93], in that order: 0.539 µM, 0.8 µM and 0.466 µM.
As to `C[C@@H]1C(=O)N(C)c2ccc(Nc3cccc(S(=O)(=O)N4CC5(CCC5)C4)c3)nc2N1C1CCNCC1` [Example 122, (3R)-6-{[3-(2-Azaspiro[3.3]hept-2-ylsulphonyl)phenyl]amino}-1,3-dimethyl-4-(piperidin-4-yl)-3,4-dihydropyrido[2,3-b]pyrazin-2(1H)-one], the IC50 came out at 0.712 µM with CHL-1 cells, 0.493 µM with MOLP-8 cells and 0.021 µM in assay [1].
With `C[C@@H]1C(=O)N(C)c2ccc(Nc3cccc(S(=O)(=O)N(C)C)c3)nc2N1C1CCNCC1` [Example 123, 3-{[(3R)-1,3-dimethyl-2-oxo-4-(piperidin-4-yl)-1,2,3,4-tetrahydropyrido[2,3-b]pyrazin-6-yl]amino}-N,N-dimethylbenzene-sulphonamide], the IC50 is 0.218 µM in the assay on CHL-1 cells, 0.169 µM in the assay with MOLP-8 cells and 0.018 µM in assay [1].
For `C[C@@H]1C(=O)N(C)c2ccc(Nc3cccc(S(=O)(=O)NC4CCN(C)CC4)c3)nc2N1C1CCNCC1` [Example 124, 3-{[(3R)-1,3-dimethyl-2-oxo-4-(piperidin-4-yl)-1,2,3,4-tetrahydropyrido[2,3-b]pyrazin-6-yl]amino}-N-(1-methylpiperidin-4-yl)benzenesulphonamide] the same measures were over 20 µM, over 20 µM and 0.03 µM.
For `C[C@@H]1C(=O)N(C)c2ccc(Nc3cccc(S(=O)(=O)N4CCN(C)CC4)c3)nc2N1C1CCNCC1` [Example 125, (3R)-1,3-dimethyl-6-({3-[(4-methylpiperazin-1-yl)sulphonyl]phenyl}amino)-4-(piperidin-4-yl)-3,4-dihydropyrido[2,3-b]pyrazin-2(1H)-one] the same measures were 2.26 µM, 0.719 µM and 0.037 µM.
For `C[C@@H]1C(=O)N(C)c2ccc(Nc3cccc(S(=O)(=O)N4CCN(CC(F)(F)F)CC4)c3)nc2N1C1CCNCC1` [Example 126, (3R)-1,3-dimethyl-4-(piperidin-4-yl)-6-[(3-{[4-(2,2,2-trifluoroethyl)piperazin-1-yl]sulphonyl}phenyl)amino]-3,4-dihydropyrido[2,3-b]pyrazin-2(1H)-one] the same measures were 0.202 µM, 0.13 µM and 0.038 µM.
Turning to `C[C@@H]1C(=O)N(C)c2ccc(Nc3cccc(S(=O)(=O)N[C@H]4CC[C@H](N5CCN(CC6CC6)CC5)CC4)c3)nc2N1C1CCNCC1` [Example 127, N-{trans-4-[4-(cyclopropylmethyl)piperazin-1-yl]cyclohexyl}-3-{[(3R)-1,3-dimethyl-2-oxo-4-(piperidin-4-yl)-1,2,3,4-tetrahydropyrido[2,3-b]pyrazin-6-yl]amino}-benzenesulphonamide], the 50% inhibitory concentration (IC50) was over 20 µM with CHL-1 cells, over 10 µM with MOLP-8 cells and 0.047 µM in assay [1].
For `C[C@@H]1C(=O)N(C)c2ccc(Nc3cccc(S(=O)(=O)N(C)C)c3)cc2N1C1CCNCC1` [Example 129, 3-{[(3R)-1,3-dimethyl-2-oxo-4-(piperidin-4-yl)-1,2,3,4-tetrahydroquinoxalin-6-yl]amino}-N,N-dimethylbenzenesulphon-amide] the same measures were 0.945 µM, 0.567 µM and 0.045 µM.
Consider `C[C@@H]1C(=O)N(C)c2ccc(Nc3cccc(C(=O)N[C@H]4CC[C@H](N5CCN(CC6CC6)CC5)CC4)c3)nc2N1C1CCNCC1` [Example 131, N-{trans-4-[4-(cyclo-propylmethyl)piperazin-1-yl]cyclohexyl}-3-{[(3R)-1,3-dimethyl-2-oxo-4-(piperidin-4-yl)-1,2,3,4-tetrahydropyrido[2,3-b]pyrazin-6-yl]amino}benzamide], for which the results for the IC50 (in the assay on CHL-1 cells; with MOLP-8 cells; in assay [1]) were over 20 µM, over 20 µM and 0.251 µM, respectively.
Consider `C[C@@H]1C(=O)N(C)c2ccc(Nc3cccc(C(=O)N(C)C)c3)cc2N1C1CCNCC1` [Example 133, 3-{[(3R)-1,3-dimethyl-2-oxo-4-(piperidin-4-yl)-1,2,3,4-tetrahydroquinoxalin-6-yl]amino}-N,N-dimethylbenzamide], for which the half-maximal inhibitory concentration (IC50) in the assay on CHL-1 cells was over 10 µM; in the assay with MOLP-8 cells it was 2.01 µM; in assay [1] it was 0.124 µM.
